Each structure is given as a SMILES string.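 Results reflect a 48-hour exposure of cells in 96-well plates to compound at five concentrations. TGI is the concentration that stops growth completely.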

Some test systems named below: HL-60(TB) leukemia; NCI-H522 lung; RXF 393 renal; MDA-MB-231 breast; SK-MEL-2 melanoma; SR leukemia; MDA-MB-435; OVCAR-8 ovarian; SNB-75 CNS; A498 renal; RPMI-8226 leukemia; M14 melanoma; U251 CNS; K-562 leukemia; OVCAR-3 ovarian; UACC-62 melanoma; NCI-H23 lung; MOLT-4 leukemia.
What all share (assay): NCI anticancer screen, dose series, 48 h

`N#Cc1cccc(C2ON=C(c3ccc([N+](=O)[O-])cc3)N2C23CC4CC(CC(C4)C2)C3)c1` (centres undefined): the TGI with HL-60(TB) leukemia, in the assay with NCI-H522 lung, with RXF 393 renal, with MDA-MB-231 breast, in the assay on SK-MEL-2 melanoma and in the assay with SR leukemia was > 100 µM each time. The TGI in the assay on MDA-MB-435, in the assay with OVCAR-8 ovarian, in the assay with SNB-75 CNS, in the assay on A498 renal, in the assay on RPMI-8226 leukemia and in the assay on M14 melanoma was > 100 µM each time. Moreover, the TGI in the assay with U251 CNS, in the assay on K-562 leukemia, in the assay on OVCAR-3 ovarian, with UACC-62 melanoma, in the assay with NCI-H23 lung and in the assay on MOLT-4 leukemia was > 100 µM in each case.
In the case of `O=C1NCC2(CCNCC2)N1c1ccccc1`, the TGI in the assay with HL-60(TB) leukemia, in the assay with NCI-H522 lung, with RXF 393 renal, in the assay with MDA-MB-231 breast, in the assay with SK-MEL-2 melanoma and with SR leukemia was > 100 µM in each case. Besides, the TGI in the assay with MDA-MB-435, in the assay on OVCAR-8 ovarian, with SNB-75 CNS, in the assay on A498 renal, in the assay with RPMI-8226 leukemia and in the assay on M14 melanoma was > 100 µM each time. The TGI with U251 CNS, in the assay with K-562 leukemia, with OVCAR-3 ovarian, with UACC-62 melanoma, in the assay on NCI-H23 lung and in the assay on MOLT-4 leukemia was > 100 µM each time.
Consider `O=C(O)c1cccc(S(=O)(=O)NN2C(=O)CSC2c2ccccc2)c1` (centres undefined), for which the TGI with HL-60(TB) leukemia, in the assay with NCI-H522 lung, in the assay with RXF 393 renal, in the assay on MDA-MB-231 breast, with SK-MEL-2 melanoma and in the assay with SR leukemia was > 100 µM each time. Besides, the TGI with MDA-MB-435, in the assay with OVCAR-8 ovarian, in the assay with SNB-75 CNS, in the assay on A498 renal, in the assay on RPMI-8226 leukemia and in the assay on M14 melanoma was > 100 µM each time. The TGI in the assay on U251 CNS, in the assay with K-562 leukemia, in the assay with OVCAR-3 ovarian, with UACC-62 melanoma, in the assay on NCI-H23 lung and with MOLT-4 leukemia was > 100 µM in each case.
`CC(=O)OCC1OC(Nc2ccc3nc(C)n(-c4cccc(C)c4)c(=O)c3c2)C(OC(C)=O)C(OC(C)=O)C1OC(C)=O` (centres undefined): the TGI in the assay on HL-60(TB) leukemia, in the assay on NCI-H522 lung, in the assay on RXF 393 renal, with MDA-MB-231 breast, in the assay with SK-MEL-2 melanoma and in the assay on SR leukemia was > 62.5 µM each time. Moreover, the TGI in the assay with MDA-MB-435, in the assay with OVCAR-8 ovarian, in the assay on SNB-75 CNS, with A498 renal, in the assay with RPMI-8226 leukemia and in the assay on U251 CNS was > 62.5 µM throughout. Moreover, the TGI with K-562 leukemia, in the assay with OVCAR-3 ovarian, in the assay on UACC-62 melanoma, in the assay with NCI-H23 lung and in the assay on MOLT-4 leukemia was > 62.5 µM throughout.
With `Cc1ccc(-c2sc(-c3ccc(C)cc3)c3c2C2CCC3C2)cc1`, the TGI in the assay with HL-60(TB) leukemia, in the assay on NCI-H522 lung, in the assay with RXF 393 renal, in the assay with MDA-MB-231 breast, in the assay on SK-MEL-2 melanoma and in the assay with SR leukemia was > 50 µM throughout. In addition, the TGI in the assay on MDA-MB-435, with OVCAR-8 ovarian, in the assay with A498 renal, in the assay on RPMI-8226 leukemia, in the assay on M14 melanoma and in the assay on U251 CNS was > 50 µM throughout. Besides, the TGI in the assay with K-562 leukemia, in the assay on OVCAR-3 ovarian, with UACC-62 melanoma, with NCI-H23 lung and in the assay on MOLT-4 leukemia was > 50 µM throughout.
In the case of `CC(=O)OCCC1c2ccccc2-n2nc(-c3ccccc3)c(O)c21` (centres undefined), the TGI in the assay with HL-60(TB) leukemia amounted to 38.4 µM; in the assay on NCI-H522 lung, 32.3 µM; in the assay with RXF 393 renal, 26 µM; in the assay with MDA-MB-231 breast, 43.3 µM; with SK-MEL-2 melanoma it was 96.6 µM; in the assay on SR leukemia it was 38.7 µM. The TGI with MDA-MB-435 was determined as 32.3 µM; in the assay on OVCAR-8 ovarian, 55.9 µM; with SNB-75 CNS, 37.7 µM; in the assay on A498 renal it was 36.4 µM; with RPMI-8226 leukemia, 33.7 µM; with M14 melanoma, 28.6 µM. For the same compound, the TGI in the assay on U251 CNS turned out to be 26.7 µM; in the assay with K-562 leukemia, 37.7 µM; with OVCAR-3 ovarian, 49.3 µM; with NCI-H23 lung, 34.5 µM; in the assay on MOLT-4 leukemia it was 56.3 µM.
As for `CC(NC1=CC(=O)c2ncccc2C1=O)C(O)c1ccccc1` (centres undefined), the TGI was 16.5 µM with HL-60(TB) leukemia; 24.8 µM in the assay with NCI-H522 lung; 22.2 µM in the assay on RXF 393 renal; 6.94 µM in the assay with MDA-MB-231 breast; 17.9 µM in the assay on SK-MEL-2 melanoma; > 100 µM in the assay on SR leukemia. In addition, the TGI with MDA-MB-435 came to 3.02 µM; with OVCAR-8 ovarian, 36.2 µM; in the assay on SNB-75 CNS it was 9.6 µM; in the assay on A498 renal, 27.7 µM; with RPMI-8226 leukemia it was 53.9 µM; in the assay with M14 melanoma, 11 µM. The TGI is 14.3 µM in the assay with U251 CNS; 13.2 µM in the assay on K-562 leukemia; 16.3 µM with OVCAR-3 ovarian; > 19.8 µM with NCI-H23 lung; 41.8 µM in the assay with MOLT-4 leukemia.
As for `COc1c(Cl)ccc(Cl)c1C(=O)NNC(=O)c1c(Cl)c(Cl)c(Cl)c(Cl)c1-c1nc2ccc(C(=O)c3ccccc3)cc2[nH]1`, the TGI in the assay on HL-60(TB) leukemia, in the assay on NCI-H522 lung, with RXF 393 renal, in the assay with MDA-MB-231 breast, with SK-MEL-2 melanoma and with SR leukemia was > 100 µM in each case. Moreover, the TGI in the assay with MDA-MB-435 is > 100 µM; in the assay with OVCAR-8 ovarian it was > 100 µM; in the assay with SNB-75 CNS, > 100 µM; in the assay with A498 renal it was > 100 µM; in the assay with RPMI-8226 leukemia, 90.8 µM; in the assay with M14 melanoma, > 100 µM. Moreover, the TGI in the assay with U251 CNS, in the assay on K-562 leukemia, in the assay with OVCAR-3 ovarian, in the assay on NCI-H23 lung and in the assay on MOLT-4 leukemia was > 100 µM in each case.

Values taken from PubChem BioAssay (NCI).
